In ChEMBL document CHEMBL1142044, “Estrogen receptor ligands. Part 10: Chromanes: old scaffolds for new SERAMs” (Bioorg Med Chem Lett, 2005):

What was measured:
Assay type in all cases: ADME, organism-based
[1] = Half life in female rat was determined with intravenous dosing at 1 mpk and oral dosing at 2 mpk; conditions: in vivo
[2] = Plasma clearance in female rat was determined with intravenous dosing at 1 mpk and oral dosing at 2 mpk; conditions: 1 mg/kg
[3] = Bioavailability in rat (female) (dose 1 mg/kg i.v. and 2 mg/kg p.o.); conditions: in vivo, po

| SMILES | half-life [1] [h] | clearance [2] [mL/min/kg] | bioavailability [3] [%] |
| --- | --- | --- | --- |
| C[C@@H]1c2cc(O)ccc2O[C@@H](c2ccc(OCCN3CCCCC3)cc2)[C@H]1c1ccc(O)cc1 | 8.1 | 7.7 | 45 |
| C[C@@H]1c2c(ccc(O)c2F)O[C@@H](c2ccc(OCCN3CCCCC3)cc2)[C@H]1c1ccc(O)cc1 | 11.2 | 16.9 | 54 |
| C[C@@H]1c2c(ccc(O)c2F)O[C@@H](c2ccc(OC[C@H](C)N3CCCC3)cc2)[C@H]1c1ccc(O)cc1 | 4.4 | 42.6 | 31 |
| C[C@H]1CCN([C@@H](C)COc2ccc([C@@H]3Oc4ccc(O)c(F)c4[C@@H](C)[C@@H]3c3ccc(O)cc3)cc2)C1 | 6.1 | 9 | 44 |
| C[C@@H]1CCN(CCOc2ccc([C@@H]3Oc4ccc(O)c(F)c4[C@@H](C)[C@@H]3c3ccc(O)cc3)cc2)C1 | 8 | 17.8 | 43 |
| C[C@@H]1c2ccc(O)cc2O[C@@H](c2ccc(OCCN3CCCCC3)cc2)[C@H]1c1ccc(O)cc1 | 5.9 | 9.5 | 2 |
